The supplement of paper PMC8617591

Key:
[1] = test system: Mycobacterium tuberculosis Erdman (autoluminescent); test: AUC25, normalised area under dose response up to IC25 (three-drug combination) (fraction (0-1)); higher = more potent at low dose
Protocol: (§1)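 DiaMOND equipotent three-drug combination dose responses (10 doses, 1.5- or 2-fold spacing, centred on IC90) against autoluminescent M. tuberculosis Erdman in 8 in vitro models. Read-out is OD600, or luminescence for the intracellular and dormancy models, normalised to untreated wells. Hill-fit Einf, AUC25 and GRinf are potency metrics; FIC50 and FIC90 are total Loewe fractional inhibitory concentrations as log2 (negative = synergy).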

[2] = test system: Mycobacterium tuberculosis Erdman (autoluminescent); test: Einf, fitted maximum growth inhibition of three-drug combination (fraction); higher = stronger maximal inhibition
Protocol: as §1

[3] = test system: Mycobacterium tuberculosis Erdman (autoluminescent); test: total FIC90 (Loewe) at 90% inhibition, three-drug combination (log2); higher = more antagonistic
Protocol: as §1

[4] = test system: Mycobacterium tuberculosis Erdman (autoluminescent); test: total FIC50 (Loewe) at 50% inhibition, three-drug combination (log2); higher = more antagonistic
Protocol: as §1

[5] = test system: Mycobacterium tuberculosis Erdman (autoluminescent); test: GRinf, maximum normalised growth rate inhibition (three-drug combination) (unitless (-1 to 1)); higher = less effect (negative = killing)
Protocol: as §1

[6] = in vitro model: acidic pH 5.7, time point: constant (~7 days, model-specific)
[7] = in vitro model: acidic pH 5.7, time point: terminal (~4-5 doublings, model-specific)
[8] = in vitro model: butyrate, time point: constant (~7 days, model-specific)
[9] = in vitro model: butyrate, time point: terminal (~4-5 doublings, model-specific)
[10] = in vitro model: cholesterol 0.05 mM, time point: constant (~7 days, model-specific)
[11] = in vitro model: cholesterol 0.05 mM, time point: terminal (~4-5 doublings, model-specific)
[12] = in vitro model: cholesterol-high 0.2 mM, time point: constant (~7 days, model-specific)
[13] = in vitro model: cholesterol-high 0.2 mM, time point: terminal (~4-5 doublings, model-specific)
[14] = in vitro model: dormancy (butyrate + nitrate, low O2), time point: constant (~7 days, model-specific)
[15] = in vitro model: dormancy (butyrate + nitrate, low O2), time point: terminal (~4-5 doublings, model-specific)
[16] = in vitro model: standard 7H9 glycerol, time point: constant = terminal
[17] = in vitro model: valerate, time point: constant (~7 days, model-specific)
[18] = in vitro model: valerate, time point: terminal (~4-5 doublings, model-specific)
[19] = in vitro model: intracellular J774, time point: constant = terminal

NC(=O)c1cnccn1 [pyrazinamide] + CO[C@H]1/C=C/O[C@@]2(C)Oc3c(C)c(O)c4c(O)c(c(/C=N/N5CCN(C6CCCC6)CC5)c(O)c4c3C2=O)NC(=O)/C(C)=C\C=C\[C@H](C)[C@H](O)[C@@H](C)[C@@H](O)[C@@H](C)[C@H](OC(C)=O)[C@@H]1C [rifapentine] + CO[C@H]1/C=C/O[C@@]2(C)Oc3c(C)c(O)c4c(O)c(c(/C=N/N5CCN(C)CC5)c(O)c4c3C2=O)NC(=O)/C(C)=C\C=C\[C@H](C)[C@H](O)[C@@H](C)[C@@H](O)[C@@H](C)[C@H](OC(C)=O)[C@@H]1C [rifampicin]
AUC25 [1, 6]: 0.0803
AUC25 [1, 7]: 0.0647
AUC25 [1, 8]: 0.117
AUC25 [1, 9]: 0.103
AUC25 [1, 10]: 0.115
AUC25 [1, 11]: 0.0851
AUC25 [1, 12]: 0.0773
AUC25 [1, 13]: 0.0817
AUC25 [1, 14]: 0.083
AUC25 [1, 15]: 0.0472
AUC25 [1, 16]: 0.0549
AUC25 [1, 17]: 0.0552
AUC25 [1, 18]: 0.0295
Einf [2, 6]: 0.896
Einf [2, 7]: 0.979
Einf [2, 8]: 0.881
Einf [2, 9]: 0.952
Einf [2, 10]: 0.629
Einf [2, 11]: 0.89
Einf [2, 12]: 0.925
Einf [2, 13]: 1
Einf [2, 14]: 0.871
Einf [2, 15]: 0.977
Einf [2, 19]: 0.97
Einf [2, 16]: 0.884
Einf [2, 17]: 0.833
Einf [2, 18]: 0.925
total FIC90 [3, 7]: -1.03
total FIC90 [3, 8]: 1.12
total FIC90 [3, 9]: 0.732
total FIC90 [3, 13]: 1.04
total FIC90 [3, 14]: -0.329
total FIC90 [3, 15]: -0.16
total FIC90 [3, 19]: -0.0544
total FIC90 [3, 18]: -0.0108
total FIC50 [4, 6]: -0.178
total FIC50 [4, 7]: -0.202
total FIC50 [4, 8]: 0.0365
total FIC50 [4, 9]: 0.198
total FIC50 [4, 11]: 0.707
total FIC50 [4, 12]: 0.97
total FIC50 [4, 13]: 1.26
total FIC50 [4, 14]: -0.0928
total FIC50 [4, 15]: -0.147
total FIC50 [4, 16]: -0.259
total FIC50 [4, 17]: 0.198
total FIC50 [4, 18]: 0.142
GRinf [5, 6]: -0.145
GRinf [5, 7]: -0.174
GRinf [5, 8]: 0.12
GRinf [5, 9]: 0.104
GRinf [5, 10]: 0.0861
GRinf [5, 11]: -0.108
GRinf [5, 12]: -0.227
GRinf [5, 13]: -0.793
GRinf [5, 14]: 0.235
GRinf [5, 15]: -0.125
GRinf [5, 19]: -0.213
GRinf [5, 16]: 0.17
GRinf [5, 17]: 0.0781
GRinf [5, 18]: 0.0607

COc1nc2ccc(Br)cc2cc1[C@@H](c1ccccc1)[C@@](O)(CCN(C)C)c1cccc2ccccc12 [bedaquiline] + CO[C@H]1/C=C/O[C@@]2(C)Oc3c(C)c(O)c4c(O)c(c(/C=N/N5CCN(C6CCCC6)CC5)c(O)c4c3C2=O)NC(=O)/C(C)=C\C=C\[C@H](C)[C@H](O)[C@@H](C)[C@@H](O)[C@@H](C)[C@H](OC(C)=O)[C@@H]1C [rifapentine] + CO[C@H]1/C=C/O[C@@]2(C)Oc3c(C)c(O)c4c(O)c(c(/C=N/N5CCN(C)CC5)c(O)c4c3C2=O)NC(=O)/C(C)=C\C=C\[C@H](C)[C@H](O)[C@@H](C)[C@@H](O)[C@@H](C)[C@H](OC(C)=O)[C@@H]1C [rifampicin]
AUC25 [1, 6]: 0.0935
AUC25 [1, 7]: 0.082
AUC25 [1, 8]: 0.119
AUC25 [1, 9]: 0.102
AUC25 [1, 10]: 0.118
AUC25 [1, 11]: 0.0915
AUC25 [1, 12]: 0.0646
AUC25 [1, 13]: 0.0574
AUC25 [1, 14]: 0.0847
AUC25 [1, 15]: 0.0726
AUC25 [1, 16]: 0.0706
AUC25 [1, 17]: 0.046
AUC25 [1, 18]: 0.028
Einf [2, 6]: 0.893
Einf [2, 7]: 0.985
Einf [2, 8]: 0.965
Einf [2, 9]: 0.987
Einf [2, 10]: 0.73
Einf [2, 11]: 0.927
Einf [2, 12]: 0.957
Einf [2, 13]: 0.998
Einf [2, 14]: 0.905
Einf [2, 15]: 0.982
Einf [2, 19]: 0.925
Einf [2, 16]: 0.924
Einf [2, 17]: 0.873
Einf [2, 18]: 0.951
total FIC90 [3, 7]: 0.574
total FIC90 [3, 8]: -0.101
total FIC90 [3, 9]: 0.454
total FIC90 [3, 11]: 0.0937
total FIC90 [3, 12]: -0.0134
total FIC90 [3, 13]: 0.3
total FIC90 [3, 14]: 0.723
total FIC90 [3, 15]: 0.653
total FIC90 [3, 19]: 0.499
total FIC90 [3, 16]: 0.35
total FIC90 [3, 18]: 0.302
total FIC50 [4, 6]: 0.903
total FIC50 [4, 7]: 0.765
total FIC50 [4, 8]: 0.199
total FIC50 [4, 9]: 0.144
total FIC50 [4, 10]: 0.198
total FIC50 [4, 11]: 0.249
total FIC50 [4, 12]: 0.444
total FIC50 [4, 13]: 0.544
total FIC50 [4, 14]: 0.141
total FIC50 [4, 15]: 0.273
total FIC50 [4, 16]: 0.258
total FIC50 [4, 17]: 0.679
total FIC50 [4, 18]: 0.579
GRinf [5, 6]: -0.273
GRinf [5, 7]: -0.265
GRinf [5, 8]: -0.195
GRinf [5, 9]: -0.131
GRinf [5, 10]: -0.233
GRinf [5, 11]: -0.216
GRinf [5, 12]: -0.49
GRinf [5, 13]: -0.604
GRinf [5, 14]: 0.174
GRinf [5, 15]: -0.165
GRinf [5, 19]: -0.129
GRinf [5, 16]: -0.0268
GRinf [5, 17]: -0.0628
GRinf [5, 18]: -0.0371

CC(C)/N=c1\cc2n(-c3ccc(Cl)cc3)c3ccccc3nc-2cc1Nc1ccc(Cl)cc1 [clofazimine] + COc1c(N2C[C@@H]3CCCN[C@@H]3C2)c(F)cc2c(=O)c(C(=O)O)cn(C3CC3)c12 [moxifloxacin] + NC(=O)c1cnccn1 [pyrazinamide]
AUC25 [1, 6]: 0.0994
AUC25 [1, 7]: 0.0958
AUC25 [1, 8]: 0.127
AUC25 [1, 9]: 0.0926
AUC25 [1, 10]: 0.129
AUC25 [1, 11]: 0.112
AUC25 [1, 12]: 0.108
AUC25 [1, 13]: 0.0989
AUC25 [1, 14]: 0.113
AUC25 [1, 15]: 0.0767
AUC25 [1, 16]: 0.111
AUC25 [1, 17]: 0.122
AUC25 [1, 18]: 0.067
Einf [2, 6]: 0.605
Einf [2, 7]: 0.951
Einf [2, 8]: 0.968
Einf [2, 9]: 0.973
Einf [2, 10]: 0.646
Einf [2, 11]: 0.927
Einf [2, 12]: 0.882
Einf [2, 13]: 0.998
Einf [2, 14]: 0.919
Einf [2, 15]: 0.992
Einf [2, 19]: 0.975
Einf [2, 16]: 0.974
Einf [2, 17]: 0.852
Einf [2, 18]: 0.914
total FIC90 [3, 7]: -0.195
total FIC90 [3, 8]: 0.847
total FIC90 [3, 9]: 0.342
total FIC90 [3, 13]: 0.272
total FIC90 [3, 14]: -0.522
total FIC90 [3, 15]: 0.297
total FIC90 [3, 19]: 0.42
total FIC90 [3, 18]: 0.85
total FIC50 [4, 6]: 0.273
total FIC50 [4, 7]: -0.216
total FIC50 [4, 8]: -0.173
total FIC50 [4, 9]: -0.0902
total FIC50 [4, 11]: 0.91
total FIC50 [4, 12]: 0.275
total FIC50 [4, 13]: 0.347
total FIC50 [4, 14]: -0.332
total FIC50 [4, 15]: 0.182
total FIC50 [4, 17]: 0.546
total FIC50 [4, 18]: 0.292
GRinf [5, 6]: -0.618
GRinf [5, 7]: -0.261
GRinf [5, 8]: -0.193
GRinf [5, 9]: -0.0738
GRinf [5, 10]: -0.114
GRinf [5, 11]: -0.137
GRinf [5, 12]: -0.3
GRinf [5, 13]: -0.761
GRinf [5, 14]: 0.162
GRinf [5, 15]: -0.202
GRinf [5, 19]: -0.333
GRinf [5, 16]: -0.232
GRinf [5, 17]: -0.0384
GRinf [5, 18]: 0.0776
